{
  "source": "paper PMC10935062",
  "about": "(Acta Pharmaceutica Sinica. B, 2023)",
  "assay": "Water solubility",
  "format": "physicochemical",
  "data": [
    {"smiles": "NC(=O)c1ccc(C(=O)NOCc2ccc(Sc3ccc(N)cc3)c(C(F)(F)F)c2)cc1", "note": "[compound 11p]", "values": [
      {"measurement": "water solubility", "result": "superior water solubility"}
    ]}
  ]
}
